Results reported in patent US10183915B2, “Axially chiral isomers, and preparation methods therefor and pharmaceutical uses thereof” (MEDSHINE DISCOVERY INC., priority 2015, dated 2019).
Like-named read-outs stand apart in the source and are kept apart here.

Assay: In vivo pharmacokinetic study in male Sprague-Dawley rats (IV and PO)
Set-up: species or system Sprague-Dawley rat
Conditions: for MRT inf: read-out: MRT0-inf
Description: Test 6: In Vivo Pharmacokinetic Study of the Test Compounds in Rats
To study the pharmacokinetic behavior of the compounds in rats and to evaluate their pharmacokinetic characteristics, their concentrations in plasma were determined by LC/MS/MS.
Appropriate amount of sample was added to a certain amount of pure water, the pH were adjusted to 7-8, to prepare to be 1 mg/mL (filtered and clarified) and 2 mg/mL (with a few particles of suspension) for IV and PO administration. • 2.4 Administration • 18 male SD rats were randomly assigned to 6 treatment groups, 3 rats in each group. Male rats were administrated IV and PO respectively after fasting overnight. The IV dosage was 2 mg/kg, the dose volume was 2 mL/kg, the PO dosage was 10 mg/kg, and the dose volume was 5 mL/kg. 3. Experimental Procedure
For IV group, 250 μL blood samples were collected before administration, and 0.083, 0.25, 0.5, 1, 2, 4, 8, 24 hours after administration, and placed in K2-EDTA anticoagulant tube, centrifuged at 3000 rpm for 15 minutes, plasma was separated, stored at −80° C. For PO Group, blood samples were collected before administration, and 0.25, 0.5, 1, 2, 4, 8, 24 hours after administration, and the other operations were the same as group IV. The content of the test compounds in the plasma of rats after administration of IV and PO were determined by LC/MS/MS method. The linear range of the assay was 6.00-18000 nM, and the lower limit of quantification was 6 nM; the plasma samples were analyzed by pretreatment with precipitated proteins.

[1] = male SD rats, IV 2 mpk, 2 mg/kg
[2] = male, Sprague-Dawley, rat, plasma, iv, 2 mg/kg, male SD rats, IV 2 mpk
[3] = male, Sprague-Dawley, rat, plasma, po, 10 mg/kg, male SD rats, PO 10 mpk

SMILES: O=C(O)CSc1nnc(Br)n1-c1ccc(C2CC2)c2ccccc12 (single isomer, unassigned) [(+)-Lesinurad]
- Transformation of the atropisomer in vivo (SD rats, IV and PO): no transformation was observed
- AUC0-inf [1]: 15.03902 ± 1.0268 µM·h
- Cl [1]: 5.50 ± 0.36 mL/min/kg
- Bioavailability (male SD rats, PO 10 mpk vs IV 2 mpk): 44.65%
- AUC0-inf (male SD rats, PO 10 mpk, 10 mg/kg): 32.68473 ± 13.43235 µM·h
- C0 [2]: 11.5 ± 2.72 µM
- half-life [2]: 1.61 ± 0.11 h
- MRT inf [2]: 2.08 ± 0.08 h
- Vd (male, Sprague-Dawley, rat, plasma, iv, 2 mg/kg, male SD rats, IV 2 mpk, read-out: Vdss): 0.69 ± 0.03 L/kg
- Cmax [3]: 7.76 ± 5.15 µM
- half-life [3]: 2.25 ± 0.02 h
- MRT inf [3]: 4.09 ± 0.87 h
- Tmax (male, Sprague-Dawley, rat, plasma, po, 10 mg/kg, male SD rats, PO 10 mpk, read-out: Tmax): 3 ± 1.73 h
